The source of these data is patent publication EP4745134A1 (Jiangsu Yahong Meditech Co., Ltd., priority 2023, dated 2025).

One assay deals with PRMT5-MTA (Homo sapiens, UniProt O14744). In words: Enzymatic inhibitory activity against PRMT5-MTA (AlphaScreen). The class given is biochemical. Particulars: read-out: IC50. The gist of the method: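 PRMT5/[…] (1 nM) was preincubated for 30 min at room temperature with 1 µM […] and 2.5 µM SAM, then exposed to compound (10-point, 3-fold from 1000 nM) for 15 min at 23 °C. Histone H4 substrate (5 nM) was added and reacted for 45 min at 23 °C. Symmetric dimethyl-R3 H4 was detected by AlphaScreen and IC50 calculated.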
(Alpha assays give light when donor and acceptor beads are brought close together.)

Another assay relates to HCT116 MTAP KO cells. The experiment in a line: Inhibitory activity against cell proliferation (CellTiter Glo, 6 days), HCT116 MTAP KO. The class given is cell-based. Particulars: for IC50: Homo sapiens, HCT-116, 144 h, HCT116 MTAP KO cells, 6 days, CellTiter Glo, read-out: HCT116 MTAP KO IC50; for Selectivity HCT 116-WT/ HCT116 MTAP KO: ratio of IC50 HCT116-WT / HCT116 MTAP KO. The method, boiled down: (§1)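 Following overnight attachment of 250 cells per well in McCoy's 5A medium with 10% FBS, compounds spanning 8 concentrations (4-fold, top 10000 nM) were applied for 6 days. Growth inhibition IC50 was derived from luminescent ATP signal.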
In general terms: In ATP-based viability assays light output follows the ATP content of the culture.

The next assay relates to HCT116-WT cells. In words: Inhibitory activity against cell proliferation (CellTiter Glo, 6 days), HCT116-WT. The class given is cell-based. The settings on record: 144 h, HCT116-WT cells, 6 days, CellTiter Glo; read-out: HCT116-WT IC50. The gist of the method: as §1

A value given as a limit tells only on which side of the number the result lay.

Chain of PRMT5-MTA (O14744 whole entry): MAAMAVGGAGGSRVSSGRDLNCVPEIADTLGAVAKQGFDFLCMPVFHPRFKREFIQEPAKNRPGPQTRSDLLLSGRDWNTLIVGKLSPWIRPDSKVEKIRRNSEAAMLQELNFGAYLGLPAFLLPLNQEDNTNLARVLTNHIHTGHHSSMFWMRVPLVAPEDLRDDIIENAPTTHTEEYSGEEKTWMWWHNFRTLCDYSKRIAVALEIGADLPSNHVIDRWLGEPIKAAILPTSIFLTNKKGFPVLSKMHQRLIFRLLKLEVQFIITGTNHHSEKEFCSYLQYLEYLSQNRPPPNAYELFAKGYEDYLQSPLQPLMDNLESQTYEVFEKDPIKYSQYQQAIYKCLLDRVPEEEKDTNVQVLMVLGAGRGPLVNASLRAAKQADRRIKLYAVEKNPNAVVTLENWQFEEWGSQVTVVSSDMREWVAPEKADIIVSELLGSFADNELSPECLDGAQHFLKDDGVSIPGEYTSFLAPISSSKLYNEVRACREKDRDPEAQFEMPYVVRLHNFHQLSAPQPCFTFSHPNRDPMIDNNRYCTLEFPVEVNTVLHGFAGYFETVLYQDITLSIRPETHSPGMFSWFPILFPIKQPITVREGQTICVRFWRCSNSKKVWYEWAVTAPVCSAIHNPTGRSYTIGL
Chain of PRMT5-MTA (Q9BQA1 whole entry partner): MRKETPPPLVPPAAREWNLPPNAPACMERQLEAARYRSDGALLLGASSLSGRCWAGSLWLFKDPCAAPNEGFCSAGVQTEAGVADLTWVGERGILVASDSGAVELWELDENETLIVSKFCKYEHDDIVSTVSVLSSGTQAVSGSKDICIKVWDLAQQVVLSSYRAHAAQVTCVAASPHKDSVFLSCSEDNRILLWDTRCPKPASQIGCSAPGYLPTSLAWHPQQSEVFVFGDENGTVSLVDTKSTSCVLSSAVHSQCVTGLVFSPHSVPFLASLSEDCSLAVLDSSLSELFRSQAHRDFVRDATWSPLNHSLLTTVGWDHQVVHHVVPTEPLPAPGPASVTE

Regarding `Cc1cc2cc(C(=O)N(Cc3ccc(-c4nncs4)cn3)N(C)c3ncccn3)ccc2nc1N` [Example 229, N-((5-(1,3,4-thiadiazol-2-yl)pyridin-2-yl)methyl)-2-amino-N',3-dimethyl-N'-(pyrimidin-2-yl)quinoline-6-carbohydrazide], the values for the IC50 at PRMT5-MTA, in the assay with HCT116 MTAP KO cells and in the assay with HCT116-WT cells were 0.0037 µM, 0.014 µM and 0.67 µM, respectively. Further, the “Selectivity HCT 116-WT/ HCT116 MTAP KO” value in the assay on HCT116 MTAP KO cells is given as 47.86.

For `Cc1cc2cc(C(=O)N(Cc3ccc(-c4cccnc4)cn3)N(C)c3ncccc3F)ccc2nc1N` [Example 163, N-([3,3'-bipyridine]-6-ylmethyl)-2-amino -N'-(3-fluoropyridin-2-yl)-N',3-dimethylq uinoline-6-carbohydrazide], the IC50 on PRMT5-MTA stood at 0.0014 µM; in the assay with HCT116 MTAP KO cells, 0.015 µM; with HCT116-WT cells, 0.465 µM. Moreover, the “Selectivity HCT 116-WT/ HCT116 MTAP KO” value in the assay on HCT116 MTAP KO cells is recorded as 31.00.

`Cn1ncc2c(N)nc3cc(Cl)c(C(=O)N4CC(F)(F)CN4c4cccc(F)n4)cc3c21` [Example 462, (4-amino-7-chloro-1-methyl-1H-pyrazolo [4,3-c]quinolin-8-yl)(4,4-difluoro-2-(6-fluoropyridin-2-yl)pyrazolidin-1-yl)methanone]: the IC50 at PRMT5-MTA was 0.006 µM; in the assay on HCT116 MTAP KO cells, 0.03 µM; in the assay on HCT116-WT cells, 0.484 µM. For the same compound, the “Selectivity HCT 116-WT/ HCT116 MTAP KO” value in the assay on HCT116 MTAP KO cells came to 16.13.

As for `CCOc1ccc(N2CC(C)CN2C(=O)c2cc3c(cc2C)nc(N)c2cnn(C)c23)nn1` (stereo not shown) [Example 385, (4-amino-1,7-dimethyl-1H-pyrazolo[4,3-c]quinolin-8-yl)(2-(6-ethoxypyridazin-3-yl)-4-methylpyrazolidin-1-yl)methanone], the IC50 came out at 0.0054 µM on PRMT5-MTA, 0.104 µM with HCT116 MTAP KO cells and 3.77 µM in the assay on HCT116-WT cells. Further, in the assay with HCT116 MTAP KO cells, the “Selectivity HCT 116-WT/ HCT116 MTAP KO” value was found to be 36.22.

For `Cc1cc2cc(C(=O)N(Cc3ccc(-c4cnn(C)c4)cn3)N(c3ncccn3)C3CC3)ccc2nc1N` [Example 152, 2-amino-N'-cyclopropyl-3-methyl-N-((5-(1-methyl-1H-pyrazol-4-yl)pyridin-2-yl)methyl)-N'-(pyrimidin-2-yl)quinoline-6-c arbohydrazide], the figures for the IC50 on PRMT5-MTA, in the assay on HCT116 MTAP KO cells and in the assay with HCT116-WT cells were 0.0044 µM, 0.035 µM and 0.998 µM, respectively. Moreover, the “Selectivity HCT 116-WT/ HCT116 MTAP KO” value in the assay with HCT116 MTAP KO cells amounted to 28.51.

For the compound `CC(=O)c1ccc(CN(C(=O)c2ccc3nc(N)c(C)cc3c2)N(C)c2ncccn2)nc1` [Example 294, N-((5-acetylpyridin-2-yl)methyl)-2-amino-N',3-dimethyl-N'-(pyrimidin-2-yl)quinoline-6-carbohydrazide], the IC50 on PRMT5-MTA was 0.0019 µM; in the assay on HCT116 MTAP KO cells, 0.113 µM; with HCT116-WT cells it was 2.91 µM. Moreover, the “Selectivity HCT 116-WT/ HCT116 MTAP KO” value with HCT116 MTAP KO cells was found to be 25.71.

Consider `Cc1cc2nc(N)c3cnn(C)c3c2cc1C(=O)N1CCCN1c1ncc(-c2cncs2)cc1F` [Example 474, (4-amino-1,7-dimethyl-1H-pyrazolo[4,3-c]quinolin-8-yl)(2-(3-fluoro-5-(thiazol-5-yl)pyridin-2-yl)pyrazolidin-1-yl)methanone], for which the results for the IC50 on PRMT5-MTA, in the assay on HCT116 MTAP KO cells and in the assay on HCT116-WT cells were 0.007 µM, 0.028 µM and 0.929 µM, respectively. Also, the “Selectivity HCT 116-WT/ HCT116 MTAP KO” value in the assay with HCT116 MTAP KO cells turned out to be 33.18.

`Cc1cc2cc(C(=O)N(Cc3ccc(C(F)(F)F)cn3)N3CCc4cccnc43)ccc2nc1N` [Example 22, 2-amino-N-(2,3-dihydro-1H-pyrrolo[2,3-b]pyridin-1-yl)-3-methyl-N-((5-(trifluoromethy 1)pyridin-2-yl)methyl)quinoline-6-carboxamide]: the IC50 is 0.0043 µM on PRMT5-MTA, 0.129 µM in the assay on HCT116 MTAP KO cells and 2.29 µM in the assay with HCT116-WT cells. For the same compound, in the assay with HCT116 MTAP KO cells, the “Selectivity HCT 116-WT/ HCT116 MTAP KO” value worked out at 17.78.

Consider `CC1CN(C(=O)c2cc3c(cc2Cl)nc(N)c2cnn(C)c23)N(c2ncccc2F)C1` (stereo not shown) [Example 398, (4-amino-7-chloro-1-methyl-1H-pyrazolo [4,3-c]quinolin-8-yl)(2-(3-fluoropyridin-2-yl)-4-methylpyrazolidin-1-yl)methanone], for which the IC50 was 0.0039 µM on PRMT5-MTA, 0.039 µM in the assay with HCT116 MTAP KO cells and 1.62 µM in the assay on HCT116-WT cells. In addition, the “Selectivity HCT 116-WT/ HCT116 MTAP KO” value with HCT116 MTAP KO cells was 41.49.

Regarding `Nc1nc2ccc(C(=O)N(Cc3ccc(C(F)(F)F)cn3)N(c3ncccn3)C3CC3)cc2cc1CO` [Example 320, 2-amino-N'-cyclopropyl-3-(hydroxymethyl)-N'-(pyrimidin-2-yl)-N-((5-(trifluoromethyl)pyridin-2-yl)methyl)quinoline-6-carbohydrazide], the IC50 was 0.0055 µM on PRMT5-MTA, 0.102 µM in the assay on HCT116 MTAP KO cells and 2.52 µM in the assay with HCT116-WT cells. Further, the “Selectivity HCT 116-WT/ HCT116 MTAP KO” value with HCT116 MTAP KO cells worked out at 24.70.

In the case of `CCN(C(=O)c1cc2c(cc1F)nc(N)c1cnn(C)c12)N(C)c1ccc(F)cn1` [Example 97, 4-amino-N-ethyl-7-fluoro-N'-(5-fluoropyridin-2-yl)-N',1-dimethyl-1H-pyrazolo[4,3-c]quinoline-8-carbohydrazide], the IC50 on PRMT5-MTA is 0.0051 µM; in the assay with HCT116 MTAP KO cells it was 0.246 µM; in the assay with HCT116-WT cells, more than 10 µM.

With `Cc1cc2cc(C(=O)N(Cc3ccc(C(F)(F)F)cn3)N(C)c3nccs3)ccc2nc1N` [Example 33, 2-amino-N',3-dimethyl-N'-(thiazol-2-yl)-N-((5-(trifluoromethyl)pyridin-2-yl)methyl)quinoline-6-carbohydrazide], the IC50 on PRMT5-MTA turned out to be 0.0033 µM; in the assay with HCT116 MTAP KO cells, 0.125 µM; in the assay on HCT116-WT cells, 2.48 µM. Moreover, the “Selectivity HCT 116-WT/ HCT116 MTAP KO” value in the assay with HCT116 MTAP KO cells is 19.87.

For `Cc1cc2cc(C(=O)N(Cc3ccc(-c4scnc4C4CC4)cn3)N(c3ncccn3)C3CC3)ccc2nc1N` [Example 240, 2-amino-N'-cyclopropyl-N-((5-(4-cyclopropylthiazol-5-yl)pyridin-2-yl)methyl)-3-methyl-N'-(pyrimidin-2-yl)quinoline-6-carbohydrazide], the IC50 on PRMT5-MTA stood at 0.0039 µM; in the assay with HCT116 MTAP KO cells, 0.036 µM; in the assay with HCT116-WT cells, 0.396 µM. In the assay on HCT116 MTAP KO cells, the “Selectivity HCT 116-WT/ HCT116 MTAP KO” value came to 11.00.

On to `Cc1cc2nc(N)c3cnn(C)c3c2cc1C(=O)N1CCCCN1c1ccc(C(F)(F)F)cn1` [Example 343, (4-amino-1,7-dimethyl-1H-pyrazolo[4,3-c]quinolin-8-yl)(2-(5-(trifluoromethyl)pyridin-2-yl)tetrahydropyridazin-1 (2H)-yl) methanone], for which the IC50 is 0.0039 µM at PRMT5-MTA, 0.212 µM in the assay on HCT116 MTAP KO cells and 4.86 µM in the assay on HCT116-WT cells. Moreover, the “Selectivity HCT 116-WT/ HCT116 MTAP KO” value in the assay with HCT116 MTAP KO cells came out at 22.90.

As to `C=C1CN(C(=O)c2cc3c(cc2Cl)nc(N)c2cnn(C)c23)N(c2cccc(F)n2)C1` [Example 435, (4-amino-7-chloro-1-methyl-1H-pyrazolo [4,3-c]quinolin-8-yl)(2-(6-fluoropyridin-2-yl)-4-methylenepyrazolidin-1-yl)methanone], the IC50 on PRMT5-MTA is 0.0073 µM; in the assay with HCT116 MTAP KO cells, 0.015 µM; in the assay with HCT116-WT cells, 0.407 µM. Besides, in the assay with HCT116 MTAP KO cells, the “Selectivity HCT 116-WT/ HCT116 MTAP KO” value was found to be 27.13.

For `Cn1ncc2c(N)nc3cc(Cl)c(C(=O)N4CC(C)(F)CN4c4ncccc4F)cc3c21` (stereo not shown) [Example 425, (4-amino-7-chloro-1-methyl-1H-pyrazolo [4,3-c]quinolin-8-yl)(4-fluoro-2-(3-fluoropyridin-2-yl)-4-methylpyrazolidin-1-yl)m ethanone], the results for the IC50 at PRMT5-MTA, with HCT116 MTAP KO cells and with HCT116-WT cells were 0.0083 µM, 0.054 µM and 0.85 µM, respectively. For the same compound, the “Selectivity HCT 116-WT/ HCT116 MTAP KO” value in the assay on HCT116 MTAP KO cells amounted to 15.74.

In the case of `[2H]C([2H])([2H])N(c1ncccn1)N(Cc1ccc(C(F)(F)F)cn1)C(=O)c1ccc2nc(N)c(C)cc2c1` [Example 2, 2-amino-3-methyl-N'-(methyl-d3)-N'-(pyrimidin-2-yl)-N-((5-(trifluoromethyl)pyridin-2-yl)methyl)quinoline-6-carbohydrazide], the results for the IC50 at PRMT5-MTA, with HCT116 MTAP KO cells and in the assay with HCT116-WT cells were 0.0021 µM, 0.03 µM and 0.82 µM, respectively. The “Selectivity HCT 116-WT/ HCT116 MTAP KO” value with HCT116 MTAP KO cells amounted to 27.33.

Consider `CCN(c1ncccn1)N(Cc1ccc(C(F)(F)F)cn1)C(=O)c1ccc2nc(N)c(C)cc2c1` [Example 6, 2-amino-N'-ethyl-3-methyl-N'-(pyrimidin-2-yl)-N-((5-(trifluoromethyl)pyridin-2-yl)methyl)quinoline-6-carbohydrazide], for which the IC50 at PRMT5-MTA is 0.0015 µM; in the assay on HCT116 MTAP KO cells, 0.095 µM; with HCT116-WT cells it was 1.38 µM. Also, the “Selectivity HCT 116-WT/ HCT116 MTAP KO” value with HCT116 MTAP KO cells is on record as 14.55.

Regarding `Cc1cc2cc(C(=O)N(Cc3ccc(-c4ccc(N5CCCC5)nc4)cn3)N(C)c3ncccn3)ccc2nc1N` [Example 211, 2-amino-N',3-dimethyl-N'-(pyrimidin-2-yl)-N-((6'-(pyrrolidin-1-yl)-[3,3'-bipyridine]-6-yl)methyl)quinoline-6-carbohydrazide], the IC50 at PRMT5-MTA was 0.0023 µM; in the assay on HCT116 MTAP KO cells, 0.084 µM; with HCT116-WT cells, 1.59 µM. The “Selectivity HCT 116-WT/ HCT116 MTAP KO” value in the assay on HCT116 MTAP KO cells is on record as 18.96.

For `Cc1cc2cc(C(=O)N(Cc3ccc(-c4scnc4C(F)(F)F)cn3)N(C)c3ncccn3)ccc2nc1N` [Example 237, 2-amino-N',3-dimethyl-N'-(pyrimidin-2-yl)-N-((5-(4-(trifluoromethyl)thiazol-5-yl)pyridin-2-yl)methyl)quinoline-6-carbohydrazide], the IC50 is 0.008 µM on PRMT5-MTA, 0.032 µM with HCT116 MTAP KO cells and 1.18 µM in the assay on HCT116-WT cells. Also, in the assay on HCT116 MTAP KO cells, the “Selectivity HCT 116-WT/ HCT116 MTAP KO” value is 36.97.

As a reminder, the IC50 is the midpoint of a concentration-inhibition curve.
